From patent EP1840211A1, “Pyranosone dehydratase from phanerochaete chrysosporium” (DANISCO A/S, priority 2001, dated 2003)
Values after ≈ are worked out from the molar mass of the structure shown.

How the values were obtained:
[1] = target: T1, pyranosone dehydratase (PD) (Phanerodontia chrysosporium, UniProt P84193); test: Conversion of AF or glucosone by PD, monitored at 226nm; type: biochemical, Phanerochaete chrysosporium; conditions: for OD226nm: 22°C, 5.5 hours
T1 construct: from tissue; host or cells: Phanerochaete chrysosporium (enzyme purified from the fungus' cell-free extract)
T1 sequence (P84193 8-900 limits assumed): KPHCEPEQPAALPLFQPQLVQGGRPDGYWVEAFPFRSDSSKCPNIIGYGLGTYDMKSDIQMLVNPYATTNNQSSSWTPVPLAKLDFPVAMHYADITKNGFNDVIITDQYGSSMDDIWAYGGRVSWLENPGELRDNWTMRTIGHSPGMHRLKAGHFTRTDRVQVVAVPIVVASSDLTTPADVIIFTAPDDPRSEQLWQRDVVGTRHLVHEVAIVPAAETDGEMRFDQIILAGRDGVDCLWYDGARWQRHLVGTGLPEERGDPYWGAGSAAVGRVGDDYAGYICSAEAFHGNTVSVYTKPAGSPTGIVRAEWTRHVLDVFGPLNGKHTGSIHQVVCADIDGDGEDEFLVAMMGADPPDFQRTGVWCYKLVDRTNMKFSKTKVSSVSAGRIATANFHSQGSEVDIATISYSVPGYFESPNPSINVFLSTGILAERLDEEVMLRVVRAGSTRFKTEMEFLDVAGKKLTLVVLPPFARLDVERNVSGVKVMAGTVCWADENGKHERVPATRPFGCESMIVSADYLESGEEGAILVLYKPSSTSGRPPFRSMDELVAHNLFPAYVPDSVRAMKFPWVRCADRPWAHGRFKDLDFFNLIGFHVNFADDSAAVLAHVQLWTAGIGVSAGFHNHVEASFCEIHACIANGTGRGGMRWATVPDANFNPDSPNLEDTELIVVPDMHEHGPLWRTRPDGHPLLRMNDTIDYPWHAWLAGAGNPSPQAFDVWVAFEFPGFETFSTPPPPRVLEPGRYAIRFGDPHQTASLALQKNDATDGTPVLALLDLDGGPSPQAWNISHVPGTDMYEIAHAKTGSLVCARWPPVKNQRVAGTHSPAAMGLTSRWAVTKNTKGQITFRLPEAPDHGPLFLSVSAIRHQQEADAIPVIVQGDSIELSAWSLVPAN
Protocol: The reaction system consisted of AF or glucosone 1-15µl, 25µl sodium phosphate buffer (6.5. 0.1M), water, 1.4µl PD to a final volume of 200µl. The reaction was performed at 22°C for 5.5 hours. The formation of microthecin from AF and cortalcerone from glucosone were monitorered at 226nm.

[2] = tested on: sugar beet seeds; test: Laboratory germination of pelleted sugar beet seeds; type: in vivo; conditions: result in words
[3] = tested on: Aphanomyces; test: Field emergence trial (Trial FEHCP034 Aphanomyces); type: in vivo, sugar beet; conditions: pellets containing the substance, result in words
From the text: Based on these findings, the efficiency of microthecin was further investigated in a field emergence trial. The trial was sown relatively late giving it a higher chance for presence of the pathogen Aphanomyces in the trial field.
Seeds were pelleted with standard P1 pelleting mass with (1,2) or without (7,8)Thiram.
Inner coating: 0,3gai/U microthecin as a 0,5% solution in water or 14,7gai/U Hymexazol. 60gai/U Imidacloprid. Standard metallic green seed cover film.
The following combinations were included in the trial: R F0 Without fungicides R FT With Thiram (in pellet) R FH With Hymexazol R FM With Microthecin R P1 STD With Thiram (in pellet) + Hymexazol R FTM With Thiram (in pellet) + Microthecin Trial place Bukkehave, DK. (4 reps, 200 seeds/plot) Trial sown 21.05.2002 1. Count 28.05.2002 (speed) 2. Count 29.05.2002 (speed) 3. Count 24.06.2002 (final)

[4] = tested on: Aphanomyces cochlioides; test: Agar plate inhibition zone test (PDA medium); type: cell-based; conditions: judged after 3-4 days of growth, read-out: minimum inhibition concentration (mic)
Protocol: (§1) A circular plug (diameter 10 mm) of fresh mycelium was placed at the centre on a petri-dish (diameter 9 cm) containing PDA medium. (PDA= Potato dextrose agar Difco no. 213400). Wells with a diameter of 5 mm were cut along the periphery of the agar plate. In each well were placed 50 µl of a test solution. Alternatively, 20 µl of each test solution were placed directly on the agar along the periphery of the plate. Also, 50µl of each test solution were placed directly on top of the fungal mycelium plug.
(§2) The agar plates were placed at room temperature in daylight, but protected from direct sunlight.
(§3) The reaction (inhibition zones) of the fungi to the test substance was judged as follows: Rhizoctonia solani: after 2-3 days of growth Pythium ultimum: after 1-2 days of growth Aphanomyces cochlioides: after 3-4 days of growth Cercospora beticola after 3-4 weeks of growth

[5] = tested on: Cercospora beticola; test: Agar plate inhibition zone test (PDA medium); type: cell-based; conditions: judged after 3-4 weeks of growth, read-out: minimum inhibition concentration (mic)
Protocol: as §1, §2, §3

[6] = tested on: Pythium ultimum; test: Agar plate inhibition zone test (PDA medium); type: cell-based; conditions: Globisporangium ultimum; judged after 1-2 days of growth; read-out: minimum inhibition concentration (mic)
Protocol: as §1, §2, §3

[7] = tested on: Rhizoctonia solani; test: Agar plate inhibition zone test (PDA medium); type: cell-based; conditions: judged after 2-3 days of growth, read-out: minimum inhibition concentration (mic)
Protocol: as §1, §2, §3

[8] = tested on: Aphanomyces cochlioides; test: Screening for growth inhibition on agar-plates (Example 4); type: cell-based; conditions: very low concentrations; in wells on PDA-agar plates, 3-5 days
Protocol: The effect of microthecin on the plant pathogenic fungi Pythium ultimum, Rhizoctonia solani and Aphanomyces cochlioides in vitro was investigated by screening for growth inhibition of the pathogens on agar-plates (Figures 6, 7, 8).
(§4) In each case, microthecin was dissolved in water and placed in wells in the periphery. An agar block containing the pathogen was placed in the centre. The pathogens were allowed to grow out on the PDA-agar plates for 3-5 days.

[9] = tested on: B. Pumilus DS96.734; test: Similar growth tests with other microorganisms (Example 4); type: cell-based
Protocol: as §4

[10] = tested on: B. megaterium DS98.124; test: as above; type: cell-based
Protocol: as §4

[11] = tested on: Cercospora; test: as above; type: cell-based
Protocol: as §4

[12] = tested on: P. fluorescens DS96.578; test: as above; type: cell-based
Protocol: as §4

[13] = tested on: P. mendocina DS98.124; test: as above; type: cell-based
Protocol: as §4

[14] = final substrate concentration 13.7 µg/ml reaction mixture
[15] = final substrate concentration 27.4 µg/ml reaction mixture
[16] = final substrate concentration 41.1 µg/ml reaction mixture
[17] = final substrate concentration 68.4 µg/ml reaction mixture
[18] = final substrate concentration 95.8 µg/ml reaction mixture
[19] = final substrate concentration 137 µg/ml reaction mixture
[20] = final substrate concentration 205 µg/ml reaction mixture

Compound | OD226nm [1, 14] | OD226nm [1, 15] | OD226nm [1, 16] | OD226nm [1, 17] | OD226nm [1, 18] | OD226nm [1, 19] | OD226nm [1, 20] | speed of germination [3] | also measured
O=C1CO[C@H](CO)[C@@H](O)[C@@H]1O [AF, 1,5-anhydro-D-fructose] | 0.308 | 0.534 | 0.76 | 1.246 | 1.764 | 2.43 | 2.943 | – | Vmax higher with AF than with glucosone ([1]; ratio AF vs glucosone as PD substrate): around 4.7 times
O=CC(=O)[C@@H](O)[C@H](O)[C@H](O)CO [Glucosone, D-arabino-hexos-2-ulose] | 0.069 | 0.104 | 0.141 | 0.238 | 0.323 | 0.484 | 0.634 | – | –
Cc1cc(O)no1 [Hymexazol, reference compound] | – | – | – | – | – | – | – | relatively slow | 4d>15mm germination [2]: low
O=C1C=CCOC1(O)CO (stereo not drawn) [microthecin] | – | – | – | – | – | – | – | comparable with pellets only containing Thiram | MIC [4]: 1200 µg/mL (≈ 8.33 mM); MIC [5]: 2400 µg/mL (≈ 16.7 mM); MIC [6]: 480 µg/mL (≈ 3.33 mM); MIC [7]: 240 µg/mL (≈ 1.67 mM); growth of Aphanomyces [8]: able to reduce the growth; effect on the growth [9]: no effect; effect on the growth [10]: no effect; effect on Cercospora [11]: no effect; effect on growth [12]: slightly affected; effect on growth [13]: slightly affected; speed of laboratory germination (4d) ([2]; inclusion in the pellet): decreases the speed of laboratory germination; final germination [3]: high final germination
